According to publication PMC5531749 (Psychopharmacology, 2016):
Read-outs that look alike come from different tables or passages of the source.

Experiments:
male Sprague-Dawley rats [1] = conditions: cited from earlier work
male Sprague-Dawley rats [2] = conditions: cited from earlier work; remark: listed apart in the source
[3] = tested on: AEA and 2-AG in rat whole brain tissue; conditions: ref Limebeer et al. 2014; cited from earlier work
[4] = tested on: 2AG and AEA levels in nucleus accumbens; conditions: localized brain area; ref Wiskerke et al. (2012); cited from earlier work
rat MAGL = conditions: ref Limebeer et al. 2014; cited from earlier work
[5] = tested on: visceral insular cortex (VIC) of rats; conditions: intra-VIC, cited from earlier work
male Sprague-Dawley rats [6] = assay type: in vivo, rat; conditions: SR141716 2.5 mg/kg 90 min after AM4301 20 mg/kg
male Sprague-Dawley rats [7] = assay: Anticipatory nausea: contextually elicited conditioned gaping; assay type: in vivo, rat
[8] = tested on: 2-AG and AEA in VIC tissue; conditions: systemic and intra-VIC administration; ref Sticht et al. (2015); cited from earlier work
[9] = 10–20 mg/kg systemic, CB1 receptor-dependent, ref Parker et al. 2014

NC(=O)c1cccc(-c2cccc(OC(=O)NC3CCCCC3)c2)c1 [URB597, cyclohexyl carbamic acid 3′-carbamoyl-biphenyl-3-yl ester]
anticipatory nausea, systemic FAAH inhibitor (male Sprague-Dawley rats [1]; 0.3 mg/kg systemic, ref Rock et al. 2008): suppresses
acute nausea, systemic FAAH inhibitor (male Sprague-Dawley rats [2]; 0.3 mg/kg systemic, ref Cross-Mellor et al. 2007): suppresses

O=C(Oc1ccc([N+](=O)[O-])cc1)N1CCN(Cc2cccc(Oc3ccccc3)c2)CC1 [JZL195]
anticipatory nausea, dual FAAH/MAGL inhibitor (male Sprague-Dawley rats [1]; 10 mg/kg, ref Limebeer et al. 2014): suppresses
AEA in rat whole brain tissue [3]: elevated
elevation of 2AG level in nucleus accumbens [4]: about 50%
elevation of AEA level in nucleus accumbens [4]: ~100%
blocking the activities of rat MAGL in whole brain analysis (rat MAGL): ineffective

CCCCCCC(C)(C)c1cc(O)c2c(c1)OC(C)(C)[C@@H]1CC=C(CO)C[C@@H]21 [HU-210]
acute nausea after administration into the VIC ([5]; ref Limebeer et al. 2012): suppressed

Cc1c(C(=O)NN2CCCCC2)nn(-c2ccc(Cl)cc2Cl)c1-c1ccc(Cl)cc1 [SR141716]
reversal of AM4301 suppression of acute nausea by CB1 antagonist (male Sprague-Dawley rats [6]): reversed the suppressive effect of AM4301
reversal of AM4302 suppression of anticipatory nausea by CB1 antagonist (male Sprague-Dawley rats [7]; SR 2.5 mg/kg 90 min after AM4302 20 mg/kg): reversed
effect of CB1 antagonist on its own on contextually elicited gaping (male Sprague-Dawley rats [7]; VEH-SR 2.5 mg/kg): did not have an effect on its own

O=C(ON1C(=O)CCC1=O)N1CCN(C(c2ccc(Cl)cc2)c2ccc(Cl)cc2)CC1 [MJN110]
anticipatory nausea, systemic MAGL inhibitor (male Sprague-Dawley rats [1]; [9]): suppresses
2-AG in the VIC [8]: elevates
acute nausea, systemic MAGL inhibitor (male Sprague-Dawley rats [2]; [9]): suppresses
acute nausea after administration into the VIC ([5]; ref Sticht et al. 2012b): suppressed
